Source: PubChem BioAssay (NCI)
Where “and” joins values, the source holds several entries; their conditions need not be identical. Equal entries are not always repeated.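 Cells were grown in 96-well plates and exposed to each compound for 48 hours at five concentrations; endpoints were interpolated linearly between bracketing concentrations, or set to the highest concentration if not reached. GI50 = concentration required for 50% inhibition of growth. Definition used: TGI = concentration required for complete inhibition of growth.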

Tests used:
Experiment in all cases: DTP human tumour cell line panel, 48 h
DU-145 prostate = system: DU-145 prostate
T-47D breast = system: T-47D breast
MDA-MB-231 breast = system: MDA-MB-231 breast
PC-3 prostate = system: PC-3 prostate
MDA-MB-435 = system: MDA-MB-435

Row | Compound | GI50 (DU-145 prostate) | TGI (DU-145 prostate) | GI50 (T-47D breast) | TGI (T-47D breast) | GI50 (MDA-MB-231 breast) | TGI (MDA-MB-231 breast) | GI50 (PC-3 prostate) | TGI (PC-3 prostate) | GI50 (MDA-MB-435) | TGI (MDA-MB-435)
1 | O=C(/C=C/N1CCN(c2cccc(C(F)(F)F)c2)CC1)c1ccc(Cl)cc1Cl | 35.1 µM | > 100 µM | 82.8 µM | > 100 µM | 26.8 µM | 59.8 µM | 31.7 µM | > 100 µM | 25.6 µM | 44.6 µM
2 | COc1ccc(C[C@H]2C[C@@H](O)[C@@H](C)C/C=C/Cc3cccc(O)c3C(=O)O2)cn1 | 27.7 µM | > 100 µM | 33.1 µM | > 100 µM | 16.4 µM | 39.6 µM | – | – | 19.9 µM | 46.6 µM
3 | COc1cccc(-c2nn(-c3ccccc3)cc2-c2ccnc(NCCNC(=O)Nc3ccc(Cl)c(Cl)c3)c2)c1 | 3.52 µM | 12.7 µM | 3.85 µM | 24.7 µM | 2.04 µM | 5.04 µM | 2.5 µM | 8.36 µM | 1.86 µM | 4.26 µM
4 | COc1ccc2nc3ccc(OC)cc3c(SCCCN)c2c1 | 1.81 µM | 3.26 µM | 3.08 µM | 14.2 µM | 9.78 µM | 25.3 µM | 1.71 µM | 4.68 µM | 6.83 µM | 27.6 µM
5 | COc1ccccc1Cn1cc2c(c1)-c1oncc1CC2 | 0.357 µM | 3.4 µM | 2.15 µM | > 100 µM | 1.34 µM | > 100 µM | 2.01 µM | > 100 µM | 0.208 µM | 0.545 µM
6 | O=C(N[C@@H]1CCCc2ccccc21)[C@H](CCC(=O)N1CCN(C2CCCCC2)CC1)N1C(=O)[C@@H](N2C(=O)OC[C@@H]2c2ccccc2)[C@H]1/C=C/c1ccccc1 | 2.9 µM | 19.3 µM | 2.98 µM | 14.6 µM | 1.89 µM | 4.12 µM | 2.32 µM | 8.35 µM | 1.35 µM | 2.72 µM
7 | COc1cc[nH]c1/C=C1\C(=O)Nc2ccc(F)c(C#CC3(O)CCOCC3)c21 | 0.806 µM | > 25 µM | 1.1 µM | 16 µM | 0.885 µM | > 25 µM | 0.669 µM | 6.52 µM | 0.57 µM | 4.05 µM
8 | Nc1ncnc2occ(-c3ccc(NC(=O)Nc4cc(C(F)(F)F)cc(C(F)(F)F)c4)cc3)c12 | 3.59 µM | 7.34 µM | 3.27 µM | 7.54 µM | 4.3 µM | 9.09 µM | 3.07 µM | 8.33 µM | 3.45 µM | 7.15 µM
9 | CC1(C)N=C(N)N=C(N)N1c1ccc(OCC(=O)Nc2cccc(S(=O)(=O)F)c2)c(Cl)c1 | – | > 100 µM | – | > 100 µM | – | > 100 µM | – | > 76.6 µM | – | > 100 µM
10 | CCN(CC)CCOc1ccc(/C=C2\C[C@H]3[C@@H]4CC=C5C[C@@H](OC(C)=O)CC[C@]5(C)[C@H]4CC[C@]3(C)[C@H]2OC(C)=O)cc1OC | 5.84 µM | 12.2 µM | 16.3 µM | 48.1 µM | 14.1 µM | 31.8 µM | 7.68 µM | 21.3 µM | 11 µM | 21.7 µM
11 | COc1ccc2c(c1O)[C@@]13C=C(O)C(=O)C=C1[C@@H](C2)N(C)CC3 | – | > 100 µM | – | > 100 µM | – | > 100 µM | – | > 100 µM | – | > 100 µM
12 | Cn1c(=O)n(-c2ccc(C(C)(C)C#N)cc2)c2c3cc(-c4cnc5ccccc5c4)ccc3ncc21 | < 0.01 µM and 0.00575 µM | 33.8 µM and > 10 µM and > 100 µM | < 0.01 µM and 0.0141 µM | 0.0488 µM and 0.0817 µM | 0.0197 µM and 0.00686 µM and < 0.011 µM | 48.5 µM and > 10 µM and > 44.3 µM | < 0.01 µM and 0.0063 µM | > 100 µM | < 0.01 µM and 0.00572 µM | 0.0687 µM
13 | CC(C)(C)n1cc(-c2ccnc(NCCNS(=O)(=O)c3ccc(Br)cc3)c2)c(-c2cccc(O)c2)n1 | 2.14 µM | 4.86 µM | 1.65 µM | 5.44 µM | 1.91 µM | 4.07 µM | 1.46 µM | 4.38 µM | 1.78 µM | 3.35 µM
14 | Cc1c(C(C)C)cc(OCCO)cc1C(C)C | – | > 100 µM | – | > 100 µM | – | 80 µM | – | 96.2 µM | – | > 100 µM
15 | Oc1cccc(-c2nc3ccccc3s2)c1 | – | > 100 µM | – | 56.8 µM | – | 56.2 µM | – | > 100 µM | – | > 100 µM
16 | COc1cc(C(c2cc3c(cc2O)OCO3)N2CCCC2)cc(OC)c1OC (configuration not stated) | – | 36 µM | – | 45.7 µM | – | 31.3 µM | – | 34.7 µM | – | 32.5 µM
17 | CC1Cc2c(N(C)C)ncnc2N(C)c2ccc(Cl)cc21 (configuration not stated) | 5.49 µM | > 100 µM | 6.56 µM | > 100 µM | 5.84 µM | 55.4 µM | 3.41 µM | 81.6 µM | 0.397 µM | > 100 µM

Row | Compound | GI50 (DU-145 prostate) | TGI (DU-145 prostate) | GI50 (T-47D breast) | TGI (T-47D breast) | GI50 (MDA-MB-231 breast) | TGI (MDA-MB-231 breast) | GI50 (PC-3 prostate) | TGI (PC-3 prostate) | GI50 (MDA-MB-435) | TGI (MDA-MB-435)
18 | CC[C@]12C=CCN3CC[C@]4(C(=C(C(=O)OC)C1)Nc1cc(O)ccc14)[C@@H]32 | 21.7 µM | 45.3 µM | 22.4 µM | 87.7 µM | 13.8 µM | 41.6 µM | 21.2 µM | 50.5 µM | 3.63 µM | 16.8 µM
19 | CCN(CC)CCC(=O)Nc1ccc(Cn2nnc3c2C(=O)c2nnn(Cc4ccc(NC(=O)CCN(CC)CC)cc4)c2C3=O)cc1 | 1.05 µM | 2.25 µM | – | – | 0.253 µM | 10.2 µM | 1.98 µM | 6.87 µM | 0.173 µM | 0.324 µM
20 | Cc1ccc(C2=Nc3c(N)ncnc3NC(c3cccc(Nc4ccnc5cc(C(F)(F)F)ccc45)c3)C2)cc1 (configuration not stated) | 6.83 µM | > 100 µM | 4.45 µM | > 100 µM | 2.59 µM | 8.44 µM | 2.8 µM | 12.5 µM | 1.94 µM | 4.84 µM
21 | O=C(OCc1ccccc1CN1CCOCC1)c1ccc(Br)cc1 | – | > 100 µM | – | > 100 µM | – | > 100 µM | – | > 100 µM | – | 95.2 µM
22 | COc1ccccc1C(=O)c1cnc(NC2CCN(S(C)(=O)=O)CC2)nc1N | 6.51 µM | > 25 µM | 8.8 µM | > 25 µM | 7.27 µM | > 25 µM | 3.48 µM | > 25 µM | 4.83 µM | > 25 µM
23 | CCOC(=O)c1[nH]c2c(c1C)-c1[nH]c(=O)c(S(=O)(=O)c3ccccc3)cc1SC2 | 30.6 µM | > 100 µM | 15.4 µM | 58.9 µM | 34.9 µM | > 100 µM | 17.7 µM | > 100 µM | 42.8 µM | > 100 µM
24 | CCCC/C(=N\N=C(N)N)c1ccc(F)cc1 | 3.89 µM | 14.7 µM | 2.61 µM | 15.6 µM | 5.42 µM | 18.9 µM | 2.85 µM | 14.3 µM | 0.381 µM | 2.22 µM
25 | CCCCCCCCCCCCCCCC[N+]1(CC)CCCC1 | 0.84 µM | 2.14 µM | 0.528 µM | 3.93 µM | 0.589 µM | 2.19 µM | 0.284 µM | 1.15 µM | – | –
26 | O=C1c2ccccc2-c2cc3ccccc3c(=O)n21 | – | > 100 µM | – | > 100 µM | – | – | – | > 100 µM | – | > 100 µM
27 | O=C(Cc1nc2ccc(C(=O)c3ccccc3)cc2[nH]c1=O)C(=O)Nc1ccccc1[N+](=O)[O-] | – | – | – | > 100 µM | – | > 100 µM | – | > 100 µM | – | > 100 µM
28 | N#CC1c2ccccc2-c2ccccc2N1C(=O)c1ccccc1 (configuration not stated) | 1.72 µM | 4.21 µM | 25.7 µM | > 100 µM | 2.61 µM | 9.06 µM | 6.86 µM | > 100 µM | 0.255 µM | 0.761 µM
29 | O=C1C=C(Nc2cccc(Br)c2)c2ccccc2C1=O | 0.569 µM | 14 µM | – | – | 1.51 µM | 36.5 µM | 8.68 µM | > 100 µM | 0.19 µM | 0.484 µM
30 | O=c1oc(-c2ccc(O)c(O)c2)cc2cc(O)cc(O)c12 | 32.4 µM | > 100 µM | 54.5 µM | > 100 µM | 44.7 µM | > 100 µM | 31.6 µM | > 100 µM | 33 µM | > 100 µM
31 | CN1CCCC1c1cccnc1.O=C(O)c1ccccc1O.O=C([O-])c1ccccc1[OH2+].O=C([O-])c1ccccc1[OH2+].O=C([O-])c1ccccc1[OH2+].[Mn+2] (configuration not stated) | > 100 µM | > 100 µM | > 100 µM | > 100 µM | > 100 µM | > 100 µM | 95.5 µM | > 100 µM | > 100 µM | > 100 µM
32 | COc1ccc(C2=CC(c3cc(OC)c(OC)c(OC)c3)n3ncnc3N2)cc1 (configuration not stated) | 0.0648 µM | 97.8 µM | – | – | 0.193 µM | 83.5 µM | 0.0536 µM | > 100 µM | – | –
33 | COC(=O)c1cc(Nc2ccc(O)c3c2C(=O)c2c([N+](=O)[O-])ccc(O)c2C3=O)cc(C(=O)OC)c1 | 1.75 µM | 3.51 µM | 4.78 µM | > 100 µM | 13.8 µM | > 100 µM | 13.5 µM | > 100 µM | – | –
34 | Cc1ccc([P+](Cc2ccc([N+](=O)[O-])cc2)(c2ccc(C)cc2)c2ccc(C)cc2)cc1 | 5.44 µM | 20.8 µM | – | – | 1.46 µM | 7.38 µM | 2.64 µM | 14.3 µM | 0.772 µM | 3.6 µM
